Measured values: patent US12692269B2, “Therapeutic compounds” (Genentech, Inc., priority 2019, dated 2026)

Columns and labels:
Format in all cases: binding
TEAD4 YAP50-100 = TEAD4 YAP50-100 (Homo sapiens, UniProt Q15561); experiment: TEAD4-YAP HTRF (TR-FRET) protein-protein interaction assay; conditions: TEAD4, YAP peptide 50-100, HTRF; for EC50: read-out: TEAD4 YAP50-100 HTRF combined: EC50
How it was run: (§1)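 His-tagged TEAD YAP-binding domain (aa 217-447) pre-bound to Eu anti-His antibody, then incubated 30 min with compound before adding biotinylated YAP (aa 50-100) or TAZ (aa 13-57) peptide with streptavidin-XL665. After 60 min at room temperature, TR-FRET 665/615 nm ratio read; IC50/EC50 from four-parameter fit.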

TEAD2 YAP50-100 = TEAD2 YAP50-100 (Homo sapiens, UniProt Q15562); experiment: TEAD2-YAP HTRF (TR-FRET) protein-protein interaction assay; conditions: TEAD2, YAP peptide 50-100, HTRF; for EC50: read-out: TEAD2 YAP50-100 HTRF combined: EC50
Sequence of TEAD2 YAP50-100 (Q15562 217-447): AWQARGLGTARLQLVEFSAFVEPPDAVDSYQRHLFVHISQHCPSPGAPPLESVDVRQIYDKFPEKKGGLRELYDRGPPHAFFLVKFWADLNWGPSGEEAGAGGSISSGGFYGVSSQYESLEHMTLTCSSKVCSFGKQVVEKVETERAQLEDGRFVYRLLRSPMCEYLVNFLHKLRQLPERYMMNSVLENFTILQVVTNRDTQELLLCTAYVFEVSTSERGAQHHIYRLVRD
How it was run: as §1

[1] = molecular target: TEAD4 TAZ (amino acids 13-57) (Homo sapiens, UniProt Q15561); experiment: TEAD4-TAZ HTRF (TR-FRET) protein-protein interaction assay; conditions: for TEAD4 TAZ HTRF combined: Max % Inhibition: TEAD4, TAZ peptide; for EC50: TEAD4-TAZ HTRF, TR-FRET 665 nm/615 nm, read-out: TEAD4 TAZ HTRF combined: EC50
Sequence of TEAD4 TAZ (amino acids 13-57) (Q15561 217-434 limits assumed): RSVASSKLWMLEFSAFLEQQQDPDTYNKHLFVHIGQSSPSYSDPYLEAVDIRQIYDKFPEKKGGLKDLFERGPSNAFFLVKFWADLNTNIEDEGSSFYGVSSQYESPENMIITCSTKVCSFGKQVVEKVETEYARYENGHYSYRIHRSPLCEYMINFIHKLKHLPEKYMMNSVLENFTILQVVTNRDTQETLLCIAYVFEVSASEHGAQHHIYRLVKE
How it was run: as §1

TEAD1 YAP50-100 = TEAD1 YAP50-100 (Homo sapiens, UniProt P28347); experiment: TEAD1-YAP HTRF (TR-FRET) protein-protein interaction assay; conditions: TEAD1, YAP peptide 50-100, HTRF; for EC50: read-out: TEAD1 YAP50-100 HTRF combined: EC50
Sequence of TEAD1 YAP50-100 (P28347 167-426 limits assumed): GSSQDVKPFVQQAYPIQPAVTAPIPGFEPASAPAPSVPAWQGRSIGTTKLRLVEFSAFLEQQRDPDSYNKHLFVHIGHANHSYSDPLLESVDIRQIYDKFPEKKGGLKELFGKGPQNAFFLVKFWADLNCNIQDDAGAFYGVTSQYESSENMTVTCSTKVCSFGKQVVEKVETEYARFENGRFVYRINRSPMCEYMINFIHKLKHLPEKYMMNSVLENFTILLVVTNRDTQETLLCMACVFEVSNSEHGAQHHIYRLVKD
How it was run: as §1

[2] = molecular target: TEAD3 TAZ (amino acids 13-57) (Homo sapiens, UniProt Q99594); experiment: TEAD3-TAZ HTRF (TR-FRET) protein-protein interaction assay; conditions: for TEAD3 TAZ HTRF combined: Max % Inhibition: TEAD3, TAZ peptide; for EC50: TEAD3-TAZ HTRF, TR-FRET 665 nm/615 nm, read-out: TEAD3 TAZ HTRF combined: EC50
Sequence of TEAD3 TAZ (amino acids 13-57) (Q99594 173-435 limits assumed): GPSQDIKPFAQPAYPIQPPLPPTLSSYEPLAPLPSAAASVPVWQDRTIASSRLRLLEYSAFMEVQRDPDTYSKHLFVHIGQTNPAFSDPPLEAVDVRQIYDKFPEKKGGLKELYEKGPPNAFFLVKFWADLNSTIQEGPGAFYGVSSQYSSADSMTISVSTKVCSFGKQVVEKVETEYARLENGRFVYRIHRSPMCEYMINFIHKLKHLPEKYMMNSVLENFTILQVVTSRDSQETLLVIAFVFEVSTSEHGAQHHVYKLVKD
How it was run: as §1

TEAD3 YAP50-100 = TEAD3 YAP50-100 (Homo sapiens, UniProt Q99594); experiment: TEAD3-YAP HTRF (TR-FRET) protein-protein interaction assay; conditions: TEAD3, YAP peptide 50-100, HTRF; for EC50: read-out: TEAD3 YAP50-100 HTRF combined: EC50
Sequence of TEAD3 YAP50-100 (Q99594 173-435 limits assumed): as above
How it was run: as §1

[3] = molecular target: TEAD1 TAZ (amino acids 13-57) (Homo sapiens, UniProt P28347); experiment: TEAD1-TAZ HTRF (TR-FRET) protein-protein interaction assay; conditions: for TEAD1 TAZ HTRF combined: Max % Inhibition: TEAD1, TAZ peptide; for EC50: TEAD1-TAZ HTRF, TR-FRET 665 nm/615 nm, read-out: TEAD1 TAZ HTRF combined: EC50
Sequence of TEAD1 TAZ (amino acids 13-57) (P28347 167-426 limits assumed): as the sequence (P28347 167-426 limits assumed) above
How it was run: as §1

[4] = molecular target: TEAD2 TAZ (amino acids 13-57) (Homo sapiens, UniProt Q15562); experiment: TEAD2-TAZ HTRF (TR-FRET) protein-protein interaction assay; conditions: for TEAD2 TAZ HTRF combined: Max % Inhibition: TEAD2, TAZ peptide; for EC50: TEAD2-TAZ HTRF, TR-FRET 665 nm/615 nm, read-out: TEAD2 TAZ HTRF combined: EC50
Sequence of TEAD2 TAZ (amino acids 13-57) (Q15562 217-447): as the sequence (Q15562 217-447) above
How it was run: as §1

Sequence of TEAD4 YAP50-100 (Q15561 217-434 limits assumed): as the sequence (Q15561 217-434 limits assumed) above

CN(C)C(=O)c1nn2c(=O)cc(-c3cc(F)c(C4CCCCC4)c(F)c3)[nH]c2c1C(=O)N1CC(CF)C1 [Compound 3, 5-(4-Cyclohexyl-3,5-difluorophenyl)-3-(3-(fluoromethyl)azetidine-1-carbonyl)-N,N-dimethyl-7-oxo-4,7-dihydropyrazolo[1,5-a]pyrimidine-2-carboxamide]
TEAD4 YAP50-100 HTRF combined: Max % Inhibition (TEAD4 YAP50-100): 39.5% | EC50 (TEAD4 YAP50-100): 210 nM | TEAD2 YAP50-100 HTRF combined: Max % Inhibition (TEAD2 YAP50-100): 56.5% | EC50 (TEAD2 YAP50-100): 10 nM | TEAD4 TAZ HTRF combined: Max % Inhibition [1]: 29.0% | EC50 [1]: 170 nM | TEAD1 YAP50-100 HTRF combined: Max % Inhibition (TEAD1 YAP50-100): 55.0% | EC50 (TEAD1 YAP50-100): 60 nM | TEAD3 TAZ HTRF combined: Max % Inhibition [2]: 44.0% | EC50 [2]: 190 nM | TEAD3 YAP50-100 HTRF combined: Max % Inhibition (TEAD3 YAP50-100): 66.5% | EC50 (TEAD3 YAP50-100): 230 nM | TEAD1 TAZ HTRF combined: Max % Inhibition [3]: 44.0% | EC50 [3]: 90 nM | TEAD2 TAZ HTRF combined: Max % Inhibition [4]: 55.0% | EC50 [4]: 10 nM

O=C(c1c(-c2cnccn2)nn2c(=O)cc(-c3ccc(CC4CCCC4)cc3)[nH]c12)N1CC(CF)C1 [Compound 25, 5-(4-(Cyclopentylmethyl)phenyl)-3-(3-(fluoromethyl)azetidine-1-carbonyl)-2-(pyrazin-2-yl)pyrazolo[1,5-a]pyrimidin-7(4H)-one]
TEAD4 YAP50-100 HTRF combined: Max % Inhibition (TEAD4 YAP50-100): 45.5% | EC50 (TEAD4 YAP50-100): 20 nM | TEAD2 YAP50-100 HTRF combined: Max % Inhibition (TEAD2 YAP50-100): 63.5% | EC50 (TEAD2 YAP50-100): 10 nM | TEAD4 TAZ HTRF combined: Max % Inhibition [1]: 47.0% | EC50 [1]: 20 nM | TEAD1 YAP50-100 HTRF combined: Max % Inhibition (TEAD1 YAP50-100): 60.0% | EC50 (TEAD1 YAP50-100): 30 nM | TEAD3 TAZ HTRF combined: Max % Inhibition [2]: 44.0% | EC50 [2]: 40 nM | TEAD3 YAP50-100 HTRF combined: Max % Inhibition (TEAD3 YAP50-100): 50.0% | EC50 (TEAD3 YAP50-100): 40 nM | TEAD1 TAZ HTRF combined: Max % Inhibition [3]: 52.0% | EC50 [3]: 40 nM | TEAD2 TAZ HTRF combined: Max % Inhibition [4]: 62.0% | EC50 [4]: 10 nM

O=C(c1c(-c2ccccn2)nn2c(=O)cc(-c3ccc(C4CCCCC4)cc3)[nH]c12)N1CC(CF)C1 [Compound 16, 5-(4-Cyclohexylphenyl)-3-(3-(fluoromethyl)azetidine-1-carbonyl)-2-(pyridin-2-yl)pyrazolo[1,5-a]pyrimidin-7(4H)-one]
TEAD4 YAP50-100 HTRF combined: Max % Inhibition (TEAD4 YAP50-100): 40.5% | EC50 (TEAD4 YAP50-100): 20 nM | TEAD2 YAP50-100 HTRF combined: Max % Inhibition (TEAD2 YAP50-100): 57.5% | EC50 (TEAD2 YAP50-100): 10 nM | TEAD4 TAZ HTRF combined: Max % Inhibition [1]: 38.0% | EC50 [1]: 20 nM | TEAD1 YAP50-100 HTRF combined: Max % Inhibition (TEAD1 YAP50-100): 70.0% | EC50 (TEAD1 YAP50-100): 60 nM | TEAD3 TAZ HTRF combined: Max % Inhibition [2]: 44.5% | EC50 [2]: 80 nM | TEAD3 YAP50-100 HTRF combined: Max % Inhibition (TEAD3 YAP50-100): 55.0% | EC50 (TEAD3 YAP50-100): 80 nM | TEAD1 TAZ HTRF combined: Max % Inhibition [3]: 59.5% | EC50 [3]: 50 nM | TEAD2 TAZ HTRF combined: Max % Inhibition [4]: 53.5% | EC50 [4]: 10 nM

Cc1nccnc1-c1nn2c(=O)cc(-c3ccc(C4CCCCC4)cc3)[nH]c2c1C(=O)N(C)C [Compound 20, 5-(4-Cyclohexylphenyl)-N,N-dimethyl-2-(3-methylpyrazin-2-yl)-7-oxo-4,7-dihydropyrazolo[1,5-a]pyrimidine-3-carboxamide]
TEAD4 YAP50-100 HTRF combined: Max % Inhibition (TEAD4 YAP50-100): 37.0% | EC50 (TEAD4 YAP50-100): 820 nM | TEAD2 YAP50-100 HTRF combined: Max % Inhibition (TEAD2 YAP50-100): 53.5% | EC50 (TEAD2 YAP50-100): 20 nM | TEAD4 TAZ HTRF combined: Max % Inhibition [1]: 34.5% | EC50 [1]: 940 nM | TEAD1 YAP50-100 HTRF combined: Max % Inhibition (TEAD1 YAP50-100): 72.0% | EC50 (TEAD1 YAP50-100): 50 nM | TEAD3 TAZ HTRF combined: Max % Inhibition [2]: 56.5% | EC50 [2]: 70 nM | TEAD3 YAP50-100 HTRF combined: Max % Inhibition (TEAD3 YAP50-100): 65.5% | EC50 (TEAD3 YAP50-100): 50 nM | TEAD1 TAZ HTRF combined: Max % Inhibition [3]: 63.0% | EC50 [3]: 50 nM | TEAD2 TAZ HTRF combined: Max % Inhibition [4]: 50.5% | EC50 [4]: 20 nM

Cc1nccnc1-c1nn2c(=O)cc(-c3ccc(CC(C)(C)C)cc3)[nH]c2c1C(=O)N1C[C@H](CF)[C@@H]1C (racemic) [Compound 73, 5-[4-(2,2-dimethylpropyl)phenyl]-2-(3-methylpyrazin-2-yl)-3-[rac-(2S,3S)-3-(fluoromethyl)-2-methyl-azetidine-1-carbonyl]-4H-pyrazolo[1,5-a]pyrimidin-7-one]
TEAD4 YAP50-100 HTRF combined: Max % Inhibition (TEAD4 YAP50-100): 58.5% | EC50 (TEAD4 YAP50-100): 100 nM | TEAD2 YAP50-100 HTRF combined: Max % Inhibition (TEAD2 YAP50-100): 67.0% | EC50 (TEAD2 YAP50-100): 20 nM | TEAD4 TAZ HTRF combined: Max % Inhibition [1]: 56.0% | EC50 [1]: 80 nM | TEAD1 YAP50-100 HTRF combined: Max % Inhibition (TEAD1 YAP50-100): 74.0% | EC50 (TEAD1 YAP50-100): 120 nM | TEAD3 TAZ HTRF combined: Max % Inhibition [2]: 59.5% | EC50 [2]: 160 nM | TEAD3 YAP50-100 HTRF combined: Max % Inhibition (TEAD3 YAP50-100): 69.5% | EC50 (TEAD3 YAP50-100): 150 nM | TEAD1 TAZ HTRF combined: Max % Inhibition [3]: 65.5% | EC50 [3]: 110 nM | TEAD2 TAZ HTRF combined: Max % Inhibition [4]: 68.5% | EC50 [4]: 20 nM

Cc1nccnc1-c1nn2c(=O)cc(-c3ccc(CC4CCCC4)cc3)[nH]c2c1C(=O)N1C[C@@H](CF)[C@H]1C (single isomer, unassigned) [Isomer A, Example 42]
TEAD4 YAP50-100 HTRF combined: Max % Inhibition (TEAD4 YAP50-100): 48.5% | EC50 (TEAD4 YAP50-100): 4850 nM | TEAD2 YAP50-100 HTRF combined: Max % Inhibition (TEAD2 YAP50-100): 45.0% | EC50 (TEAD2 YAP50-100): 20 nM | TEAD4 TAZ HTRF combined: Max % Inhibition [1]: 20.0% | EC50 [1]: 1100 nM | TEAD1 YAP50-100 HTRF combined: Max % Inhibition (TEAD1 YAP50-100): 64.0% | EC50 (TEAD1 YAP50-100): 80 nM | TEAD3 TAZ HTRF combined: Max % Inhibition [2]: 66.0% | EC50 [2]: 340 nM | TEAD3 YAP50-100 HTRF combined: Max % Inhibition (TEAD3 YAP50-100): 69.5% | EC50 (TEAD3 YAP50-100): 320 nM | TEAD1 TAZ HTRF combined: Max % Inhibition [3]: 49.0% | EC50 [3]: 80 nM | TEAD2 TAZ HTRF combined: Max % Inhibition [4]: 57.0% | EC50 [4]: 20 nM

Cc1nccnc1-c1nn2c(=O)cc(-c3ccc(O[C@@H](c4ccccc4)C(F)(F)F)cc3)[nH]c2c1C(=O)N1CC(CF)C1 [Compound 67, (S)-3-(3-(Fluoromethyl)azetidine-1-carbonyl)-2-(3-methylpyrazin-2-yl)-5-(4-(2,2,2-trifluoro-1-phenylethoxy)phenyl)pyrazolo[1,5-a]pyrimidin-7(4H)-one]
TEAD4 YAP50-100 HTRF combined: Max % Inhibition (TEAD4 YAP50-100): 72.5% | EC50 (TEAD4 YAP50-100): 4250 nM | TEAD2 YAP50-100 HTRF combined: Max % Inhibition (TEAD2 YAP50-100): 92.5% | EC50 (TEAD2 YAP50-100): 50 nM | TEAD4 TAZ HTRF combined: Max % Inhibition [1]: 71.5% | EC50 [1]: 4000 nM | TEAD1 YAP50-100 HTRF combined: Max % Inhibition (TEAD1 YAP50-100): 69.0% | EC50 (TEAD1 YAP50-100): 190 nM | TEAD3 TAZ HTRF combined: Max % Inhibition [2]: 71.0% | EC50 [2]: 200 nM | TEAD3 YAP50-100 HTRF combined: Max % Inhibition (TEAD3 YAP50-100): 79.0% | EC50 (TEAD3 YAP50-100): 180 nM | TEAD1 TAZ HTRF combined: Max % Inhibition [3]: 65.0% | EC50 [3]: 220 nM | TEAD2 TAZ HTRF combined: Max % Inhibition [4]: 89.0% | EC50 [4]: 50 nM
